From patent US8609731B2, “Substituted tetrahydronaphthalenes, process for the preparation thereof and the use thereof as medicaments” (SANOFI, priority 2007, dated 2013)
Values after ≈ are worked out from the molar mass of the structure shown.

Assays:
human MCH receptor = target: T1, human MCH receptor (Homo sapiens, UniProt Q99705); assay: calcium mobilization assay (FLIPR); functional IC50 of MCH1R antagonists; format: cell-based; conditions: recombinant HEK293 cell line expressing human MCH receptor; calcium flux after addition of agonist MCH
T1 construct: expressed in transfected cells
T1 sequence (Q99705 whole entry): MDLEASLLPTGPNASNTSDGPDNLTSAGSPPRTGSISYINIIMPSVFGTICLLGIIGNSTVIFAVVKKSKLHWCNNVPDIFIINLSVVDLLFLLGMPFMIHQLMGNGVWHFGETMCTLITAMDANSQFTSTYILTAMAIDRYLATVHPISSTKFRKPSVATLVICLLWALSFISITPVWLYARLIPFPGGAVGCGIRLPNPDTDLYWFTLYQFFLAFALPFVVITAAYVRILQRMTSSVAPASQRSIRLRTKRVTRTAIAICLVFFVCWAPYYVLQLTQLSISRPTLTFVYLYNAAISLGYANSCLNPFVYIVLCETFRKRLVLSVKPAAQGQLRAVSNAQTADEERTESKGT
Source text: Influence on the MCH Receptor In Vitro; Determination of Functional IC50 Values of MCH1R Antagonists
Cloning of the cDNA for the human MCH receptor, preparation of a recombinant HEK293 cell line which expresses the human MCH receptor, and functional measurements with the recombinant cell line took place in analogy to the description by Audinot et al. (J. Biol. Chem. 2001, 276, 13554-13562). A difference from the reference was, however, the use of the plasmid pEAK8 from EDGE Biosystems (USA) for the construction of the expression vector. The host used for the transfection was a transformed HEK cell line named “PEAK Stable Cells” (likewise from EDGE Biosystems). Functional measurements of the cellular calcium flux after addition of agonist (MCH) in the presence of ligand of the invention took place with the aid of the FLIPR apparatus from Molecular Devices (USA), using protocols of the apparatus manufacturer. The compounds of the invention show a significant inhibition (>30%) of the signal induced by the agonist at a concentration of 100 μM, preferably at 10 μM, particularly preferably at 1 μM, very particularly preferably at 100 nM and very very particularly preferably at 10 nM.

hERG channel = target: T2, hERG channel (Homo sapiens, UniProt Q12809); assay: hERG channel blockade, whole-cell patch clamp in CHO cells expressing hERG; format: cell-based; conditions: CHO cells with stable hERG expression, room temperature, read-out: hERG Inh. IC50
T2 construct: expressed in transfected cells; host or cells: CHO cells (ATCC), pcDNA3 vector, G418 selection
T2 sequence (Q12809 whole entry): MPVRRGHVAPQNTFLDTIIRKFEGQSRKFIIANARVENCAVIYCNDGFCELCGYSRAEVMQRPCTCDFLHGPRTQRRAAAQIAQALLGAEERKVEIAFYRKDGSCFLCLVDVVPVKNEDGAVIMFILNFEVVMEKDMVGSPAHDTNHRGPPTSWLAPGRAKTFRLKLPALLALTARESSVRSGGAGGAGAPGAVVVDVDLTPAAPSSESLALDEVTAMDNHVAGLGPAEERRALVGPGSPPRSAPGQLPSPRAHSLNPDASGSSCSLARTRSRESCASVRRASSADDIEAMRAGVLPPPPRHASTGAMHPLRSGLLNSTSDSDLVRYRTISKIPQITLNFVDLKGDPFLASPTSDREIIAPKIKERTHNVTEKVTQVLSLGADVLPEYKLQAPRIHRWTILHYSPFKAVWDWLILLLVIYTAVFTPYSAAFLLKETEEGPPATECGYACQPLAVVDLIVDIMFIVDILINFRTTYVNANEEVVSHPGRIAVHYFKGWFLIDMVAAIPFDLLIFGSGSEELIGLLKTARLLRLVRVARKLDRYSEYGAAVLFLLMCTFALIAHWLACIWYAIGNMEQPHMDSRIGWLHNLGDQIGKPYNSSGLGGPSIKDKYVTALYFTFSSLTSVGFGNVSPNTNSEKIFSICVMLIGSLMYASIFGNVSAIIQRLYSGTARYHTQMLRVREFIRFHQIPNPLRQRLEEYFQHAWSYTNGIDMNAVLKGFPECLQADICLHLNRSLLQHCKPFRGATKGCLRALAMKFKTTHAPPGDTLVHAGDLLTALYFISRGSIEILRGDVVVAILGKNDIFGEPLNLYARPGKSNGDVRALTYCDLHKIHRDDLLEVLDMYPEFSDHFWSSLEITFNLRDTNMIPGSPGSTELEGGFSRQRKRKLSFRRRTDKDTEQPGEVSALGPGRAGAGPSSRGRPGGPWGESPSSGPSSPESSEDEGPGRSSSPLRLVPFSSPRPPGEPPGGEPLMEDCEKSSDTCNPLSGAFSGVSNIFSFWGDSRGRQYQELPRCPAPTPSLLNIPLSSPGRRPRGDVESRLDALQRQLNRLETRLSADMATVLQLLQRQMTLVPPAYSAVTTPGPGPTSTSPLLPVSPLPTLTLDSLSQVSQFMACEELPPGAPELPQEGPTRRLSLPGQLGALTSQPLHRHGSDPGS
Source text: The aim of the test is to determine the concentration range in which the test compound blocks the cardiac hERG channel. Blockade of the hERG channel, which is responsible for the Ikr current in the human heart, is associated with potentially fatal arrhythmias.
For expression of the cDNA encoding the hERG channel it was cloned into the pcDNA3 vector (Invitrogen). Chinese hamster […] (CHO, American Type Culture Collection, Rockville, Md.) were transfected using lipofectamine (GIBCO/BRL, Grand Island, N.Y.) with the hERG cDNA and selected using G418 (GIBCO/BRL, Grand Island, N.Y.; 500 μg/ml). CHO cells with stable expression of the hERG channel were cultured on a HAM F-12 medium which was supplemented with 10% native bovine serum, 1× penicillin/streptomycin and 500 μg/ml G418 in an atmosphere of 95% air/5% carbon dioxide.
The cells selected for the patch clamp experiment are seeded on a plastic support 18-24 hours before the experiment. HERG channel currents are recorded at room temperature by the whole-cell variant of the patch clamp technique using an Axopatch 200B amplifier (Axon Instruments, Foster City, Calif.). The electrodes (3-6 megaohms resistance) are prepared from TW150F glass capillaries (World Precision Instruments, Sarasota, Fla.) and filled with the pipette solution (120 mM potassium aspartate, 20 mM KCl, 4 mM Na2ATP, 5 mM HEPES, 1 mM MgCl2; adjusted to pH 7.2 with KOH). The hERG channel currents are induced by a positive voltage pulse (20 mV) followed by a negative pulse (−40 mV) and are recorded for later analysis. As soon as the hERG channel current of the cell flushed with the control solution ([…], 5 mM KCl, 2.8 mM NaOAc, 1 mM MgCl2, 10 mM HEPES; 10 mM glucose, 1 mM CaCl2; adjusted to pH 7.4 with NaOH) is stable, the cell is perfused with the test compound dissolved in the above control solution (by dilution of a 10 or 100 mM DMSO solution of the test compound so that the DMSO content is no more than 0.1%). The current is followed continuously until no further changes occur. The same procedure is repeated with increasing concentrations of the test compound. The maximum amplitude of the hERG current is measured in picoAmperes (pA) for each concentration and for each cell. The maximum amplitude in pA for each concentration of the test compound is compared with that of the pure control solution in the same cell and calculated as % of the control value.
Evaluation: The test compound is tested at various concentrations in 3-5 CHO cells which express the hERG channel. The IC50 is obtained by use of nonlinear least squares regression (GraphPAD Software, San Diego, Calif.).

physchem = format: physicochemical; conditions: pH 7.4, aqueous buffer, kinetic from dmso stock
Experimental: A DMSO solution of the test compound (2.5 mM; 0.5 μl) is pipetted into 200 μl of an aqueous test solution (e.g. phosphate-buffered saline, 10×, 1M, Sigma, adjusted to 10 mM, pH 7.4) in a 96-well microtiter plate, and the turbidity is measured at the resulting theoretical concentration for the test compound of 6.25 μM using a nephelometer (e.g. Nephelostar Galaxy, BMG Labtech). The concentration of the test compound in the aqueous test solution is then raised to a theoretical 12.5 μM by adding further DMSO solution (2.5 mM; 0.5 μl), and the turbidity measurement is repeated. Further additions of DMSO solutions (1 μl, 2.5 mM; 0.5 μl, 10 mM; then 9×1 μl, 10 mM resulting in theoretical concentrations of 25 μM, 50 μM, 100 μM, 150 μM, 200 μM, 250 μM, 300 μM, 350 μM, 400 μM, 450 μM and 500 μM) with turbidity measurement in between complete the measurement process.
Evaluation: The turbidity values from the nephelometer are plotted against the theoretical concentration of the test compound in the aqueous test solution. As soon as a significant turbidity is detected (e.g. 5 times above the control value of the aqueous test solution) at a theoretical concentration, the level of concentration below this is stated to be the solubility limit of the test compound in the test solution. Thus, the maximum possible measurement range emerges as values <6.25 μM, 6.25−500 μM and >500 μM.

IC50 (human MCH receptor) [nM] | solubility kinetic (physchem) [µM] | Compound | IC50 (hERG channel) [nM]
90 | > 500 | O=C(N[C@H]1CCc2cc(CN3CCCC3)ccc2C1)c1ccc(OC[C@@H]2CCCO2)cc1 [Example 1, N-((S)-6-Pyrrolidin-1-ylmethyl-1,2,3,4-tetrahydronaphthalen-2-yl)-4-[(S)-1-(tetrahydrofuran-2-yl)methoxy]benzamide] | > 30000
100 | 50 (≈ 22.5 µg/mL) | CC(C)(C)CNCc1ccc2c(c1)CC[C@H](NC(=O)c1ccc(OC[C@@H]3CCCO3)cc1)C2 [Example 3-34] | > 30000
– | > 500 | O=C(N[C@H]1CCc2cc(CN3CC4CCC3C4)ccc2C1)c1ccc(OC[C@@H]2CCCO2)cc1 (some centres unmarked) [Example 3-83] | > 30000
110 | 450 (≈ 214 µg/mL) | CC1(C)CCN(Cc2ccc3c(c2)CC[C@H](NC(=O)c2ccc(OC[C@@H]4CCCO4)cc2)C3)CC1 [Example 3-166] | > 10000
630 | > 500 | COC1CCN(Cc2ccc3c(c2)CC[C@H](N2CCc4cc(OC[C@@H]5CCCO5)ccc4C2=O)C3)CC1 [Example 14, 2-[(S)-6-(4-Methoxypiperidin-1-ylmethyl)-1,2,3,4-tetrahydronaphthalen-2-yl]-6-[(S)-1-(tetrahydrofuran-2-yl)methoxy]-3,4-dihydro-2H-isoquinolin-1-one] | > 10000
